According to patent publication US20240067693A1, “POLYPEPTIDES AND USES THEREOF” (MEDIMMUNE LIMITED, priority 2020, published 2024):
Numbered stars: 1 amine (or outer) side, 2 acyl side, 3 side chain; on linkers, the order of the positions; unused ones are H or OH. Bridge positions count the residues as written; N and C are the ends. Square brackets hold non-standard residues; d marks the D form. Side chains are listed from the residue outwards. Peptide text beside a SMILES is read from it. * marks the point of attachment. C20 diacid = O=C(O)CCCCCCCCCCCCCCCCCCC(=O)*; C18 diacid = O=C(O)CCCCCCCCCCCCCCCCC(=O)*; γGlu = O=C(O)[C@H](CCC(=O)[*:2])N[*:1]; Aib = CC(C)(N)C(=O)O

Key:
[1] = target: T1, rat amylin receptor (calcitonin receptor co-expressed with receptor activity modifying protein, RAMP3) (Rat AMYR3) (Rattus norvegicus, UniProt P32214+Q9JJ73); assay: cAMP production in HEK cells with stable recombinant expression of rat amylin receptor (Rat AMYR3); type: cell-based; conditions: assay buffer with 0.1% BSA
T1 construct: expressed in transfected cells
T1 sequence (P32214 25-516): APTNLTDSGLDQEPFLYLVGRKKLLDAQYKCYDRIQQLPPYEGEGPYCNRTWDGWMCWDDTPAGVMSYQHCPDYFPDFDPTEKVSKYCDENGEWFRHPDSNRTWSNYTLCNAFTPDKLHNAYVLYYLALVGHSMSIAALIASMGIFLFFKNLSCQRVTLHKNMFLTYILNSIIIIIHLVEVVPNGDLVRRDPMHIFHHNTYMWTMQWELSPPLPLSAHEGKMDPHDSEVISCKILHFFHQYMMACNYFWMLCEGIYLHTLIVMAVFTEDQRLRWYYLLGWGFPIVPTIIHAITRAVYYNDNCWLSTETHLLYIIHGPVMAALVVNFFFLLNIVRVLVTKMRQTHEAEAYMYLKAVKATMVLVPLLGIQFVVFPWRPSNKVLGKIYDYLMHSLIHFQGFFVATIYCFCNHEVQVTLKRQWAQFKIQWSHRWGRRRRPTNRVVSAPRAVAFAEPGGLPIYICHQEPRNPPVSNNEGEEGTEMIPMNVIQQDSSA
T1 sequence (Q9JJ73 23-147 partner): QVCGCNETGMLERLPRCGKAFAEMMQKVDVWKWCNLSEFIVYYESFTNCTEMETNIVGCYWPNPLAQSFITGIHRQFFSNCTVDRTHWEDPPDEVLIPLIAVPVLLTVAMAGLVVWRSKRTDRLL
Protocol: (§1) The functional activities of lipidated pramlintide analogue peptides, such as cAMP production, were tested in 1321N1 cell line with stable recombinant expression of human calcitonin receptor (hCTR) or human amylin receptor (calcitonin receptor co-expressed with receptor activity modifying protein, RAMP3) (hAMYR3) or HEK cells with stable recombinant expression of rat calcitonin receptor (rat CTR) or rat amylin receptor (calcitonin receptor co-expressed with receptor activity modifying protein, RAMP3) (Rat AMYR3).
(§2) Cryopreserved cell stock was thawed rapidly in a water-bath, suspended in assay buffer (0.1% BSA (Sigma # A3059) in HBSS (Sigma # H8264) with 25 mM HEPES, pH 7.4 and containing 0.5 mM IB MX (Sigma# 17018)) and spun at 240×g for 5 minutes. Cells were re-suspended in assay buffer at a batch-dependent optimized concentration (e.g. hCTR cells at 0.125×10^5 cells/mL, hAMYR3 cells at 0.125×10^5 cells/mL, rat CTR cells at 1x10^5 cells/mL, rat AMYR3 at 2×10^5 cells/mL).
(§3) The test peptide stock was prepared in DMSO and diluted in assay buffer to reach stated concentrations and transferred in duplicates into a 384-black shallow well microtitre assay plate (Corning # 3676). Cells were added to the assay plate, incubated at room temperature for 30 minutes and the cAMP level measured using cAMP dynamic 2 HTRF kit (Cisbio, Cat # 62AM4PEJ), following the two step protocol as per manufacturer's recommendations. The plates were read on an Envision (Perkin Elmer) using excitation wavelength of 320 nm and emission wavelengths of 620nm & 665 nm.
(§4) Data was transformed to % Delta F as described in the manufacturer's guidelines and analyzed as percent activation of maximal amylin or calcitonin effect by 4-parameter logistic fit to determine EC50 values. The selectivity of a peptide to hAMYR vs hCTR is defined as a ratio of EC50 values at the two receptors.

[2] = target: T2, rat calcitonin receptor (rat CTR) (Rattus norvegicus, UniProt P32214); assay: cAMP production in HEK cells with stable recombinant expression of rat calcitonin receptor (rat CTR); type: cell-based; conditions: assay buffer with 0.1% BSA
T2 construct: expressed in transfected cells
T2 sequence (P32214 25-516): T1 sequence (P32214 25-516)
Protocol: as §1, §2, §3, §4

in vivo = conditions: male, Sprague-Dawley, rat, 20 nmol/kg
[3] = target: T3, human calcitonin receptor (hCTR) (Homo sapiens, UniProt P30988); assay: cAMP production in 1321N1 cells with stable recombinant expression of human calcitonin receptor (hCTR); type: cell-based; conditions: cAMP, 1321N1 cells, assay buffer with 0.1% BSA; read-out: EC50 (pM) hCTR
T3 construct: expressed in transfected cells
T3 sequence (P30988 25-474): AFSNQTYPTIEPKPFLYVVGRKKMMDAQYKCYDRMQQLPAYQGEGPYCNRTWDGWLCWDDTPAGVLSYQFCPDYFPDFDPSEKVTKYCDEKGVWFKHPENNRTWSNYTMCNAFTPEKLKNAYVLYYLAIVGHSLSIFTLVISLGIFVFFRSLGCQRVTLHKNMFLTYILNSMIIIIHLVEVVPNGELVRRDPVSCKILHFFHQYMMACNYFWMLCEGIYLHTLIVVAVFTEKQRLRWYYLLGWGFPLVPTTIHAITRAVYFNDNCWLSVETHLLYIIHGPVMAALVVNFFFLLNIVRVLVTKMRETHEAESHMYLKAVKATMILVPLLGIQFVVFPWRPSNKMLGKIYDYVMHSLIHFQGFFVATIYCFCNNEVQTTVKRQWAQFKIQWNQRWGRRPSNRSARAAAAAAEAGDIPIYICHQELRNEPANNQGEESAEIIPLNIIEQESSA
Outline: (§5)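 EC50 values come from 4-parameter logistic fits of HTRF cAMP signal, normalised to maximal calcitonin or amylin effect. Peptides were tested in duplicate for 30 min at RT in IBMX-containing (0.5 mM) BSA/HEPES buffer pH 7.4 on stable 1321N1 (human CTR, AMYR3) or HEK (rat CTR, AMYR3) lines.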

[4] = target: T4, human amylin receptor (calcitonin receptor co-expressed with receptor activity modifying protein, RAMP3) (hAMYR3) (Homo sapiens, UniProt O60896+P30988); assay: cAMP production in 1321N1 cells with stable recombinant expression of human amylin receptor (hAMYR3); type: cell-based; conditions: for Ratio (selectivity hAMYR vs hCTR, ratio of EC50 values at the two receptors): EC50 hCTR / EC50 hAMYR3; for EC50: cAMP, 1321N1 cells, assay buffer with 0.1% BSA, read-out: EC50 (pM) hAMYR3
T4 construct: expressed in transfected cells
T4 sequence (P30988 25-474): T3 sequence (P30988 25-474)
T4 sequence (O60896 24-148 partner): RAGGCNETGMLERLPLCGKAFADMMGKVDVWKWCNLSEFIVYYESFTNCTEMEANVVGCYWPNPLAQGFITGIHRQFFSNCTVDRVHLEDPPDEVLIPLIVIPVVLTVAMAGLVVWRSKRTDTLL
Outline: as §5

lean rats = assay: Rat acute food intake study; type: in vivo; conditions: lean male Sprague Dawley rats, 20 nmol/kg subcutaneously
Protocol: Male Sprague Dawley rats were obtained from Taconic Denmark, ApS at approximately 7 weeks of age. Rats were implanted with a microchip for identification, housed 4/cage with enrichment, free access to food and water, and allowed one week acclimatisation while non-invasive characterization was performed. Rats were on a 12:12 light:dark cycle that switches at 1pm:1am. Food intake was monitored via the HM2 system (Lafayette Instrument) that allows for monitoring in a home cage. As each rat enters an access tunnel to feed, an IR beam is broken, and the implanted microchip is read. Resulting changes to food weight is then assigned to the specific animal. Social order has shown no impact to overall feeding patterns and amounts.
Rats were sorted into groups based on Day -1 body weight and 24-hour accumulated food intake (n=7 per group). On Day 0 rats were weighed, then fasted for 6 hours. Thirty (30) minutes prior to the reintroduction of food, rats were dosed subcutaneously (5 mL/kg) with 20 nmol/kg of test compound or 60 nmol/kg peptide 1 (pramlintide) diluted in an appropriate vehicle, after which food was returned, and lights went out. Automated food intake was monitored for the following 3 days, and rats were weighed once per day.
Food intake per rat was batched into 1-hour intervals and integrated into Gubra's GubraView data management system. Discrete food intake data was exported into MS Excel from which cumulative food intake data was generated. Cumulative food intake data was then transposed into GraphPad Prism (v8.0.1) for analysis of dark period feeding

Row | Compound | EC50 [1] [pM] | EC50 [2] [pM] | half-life (in vivo; iv) [h] | half-life (in vivo; sc) [h] | EC50 [3] [pM] | Ratio (selectivity hAMYR vs hCTR, ratio of EC50 values at the two receptors) [4] | EC50 [4] [pM] | Cummulative food intake (% vehicle treated intake) At 12 h (lean rats) [% vehicle treated intake] | Cummulative food intake (% vehicle treated intake) At 24 h (lean rats) [% vehicle treated intake] | Cummulative food intake (% vehicle treated intake) At 48 h (lean rats) [% vehicle treated intake]
1 | CC[C@H](C)[C@H](NC(=O)[C@@H]1CCCN1C(=O)CNC(=O)[C@H](Cc1ccccc1)NC(=O)[C@H](CC(N)=O)NC(=O)C(C)(C)NC(=O)[C@H](CO)NC(=O)[C@H](CO)NC(=O)[C@H](Cc1c[nH]cn1)NC(=O)[C@@H](NC(=O)[C@H](CC(C)C)NC(=O)[C@H](Cc1ccccc1)NC(=O)[C@H](CC(N)=O)NC(=O)[C@H](C)NC(=O)[C@H](CC(C)C)NC(=O)[C@H](CCCNC(=N)N)NC(=O)[C@H](CCC(N)=O)NC(=O)[C@@H](NC(=O)[C@H](C)NC(=O)[C@@H]1CSSC[C@H](NC(=O)[C@H](CCCCN)NC(=O)[C@@H](N)CCCCNC(=O)CC[C@H](NC(=O)CCCCCCCCCCCCCCCCC(=O)O)C(=O)O)C(=O)N[C@@H](CC(N)=O)C(=O)N[C@@H]([C@@H](C)O)C(=O)N[C@@H](C)C(=O)N[C@@H]([C@@H](C)O)C(=O)N1)[C@@H](C)O)C(C)C)C(=O)N[C@@H](CC(C)C)C(=O)N1CCC[C@H]1C(=O)N1CCC[C@H]1C(=O)N[C@H](C(=O)N[C@@H](CC(N)=O)C(=O)N[C@H](C(=O)NCC(=O)N[C@@H](CO)C(=O)N[C@@H](CC(N)=O)C(=O)N[C@H](C(=O)N[C@@H](Cc1ccc(O)cc1)C(N)=O)[C@@H](C)O)C(C)C)[C@@H](C)O [Peptide 35, K(γE-C18diacid)K[CNTATC]ATQRLANFLVHSS(Aib)NFGPILPPTNVGSNTY-amide] (H-K([γGlu-C18 diacid])KCNTATCATQRLANFLVHSS[Aib]NFGPILPPTNVGSNTY-NH2; disulfide 3-8; N-terminus assumed) | 5.9 | 514 | 5.4 | 8.1 | 14200 | 55 | 259 | 49.8 | 44.8 | 72
2 | CC[C@H](C)[C@H](NC(=O)[C@@H]1CCCN1C(=O)CNC(=O)[C@H](Cc1ccccc1)NC(=O)[C@H](CC(N)=O)NC(=O)[C@H](CC(N)=O)NC(=O)[C@H](CO)NC(=O)[C@H](CO)NC(=O)[C@H](Cc1c[nH]cn1)NC(=O)[C@H](CCCNC(=N)N)NC(=O)[C@H](CC(C)C)NC(=O)[C@H](Cc1ccccc1)NC(=O)[C@H](CCC(=O)O)NC(=O)[C@H](C)NC(=O)[C@H](CC(C)C)NC(=O)[C@H](CCCNC(=N)N)NC(=O)[C@H](CCC(N)=O)NC(=O)[C@@H](NC(=O)[C@H](C)NC(=O)[C@@H]1CSSC[C@H](NC(=O)[C@@H](N)CCCCNC(=O)CC[C@H](NC(=O)CC[C@H](NC(=O)CCCCCCCCCCCCCCCCCCC(=O)O)C(=O)O)C(=O)O)C(=O)N[C@@H](CC(N)=O)C(=O)N[C@@H]([C@@H](C)O)C(=O)N[C@@H](C)C(=O)N[C@@H]([C@@H](C)O)C(=O)N1)[C@@H](C)O)C(=O)N[C@@H](CC(C)C)C(=O)N1CCC[C@H]1C(=O)N1CCC[C@H]1C(=O)N[C@H](C(=O)N[C@@H](CC(N)=O)C(=O)N[C@H](C(=O)NCC(=O)N[C@@H](CO)C(=O)N[C@@H](CC(N)=O)C(=O)N[C@H](C(=O)N[C@@H](Cc1ccc(O)cc1)C(N)=O)[C@@H](C)O)C(C)C)[C@@H](C)O [Peptide 116] (H-K([γGlu-γGlu-C20 diacid])CNTATCATQRLAEFLRHSSNNFGPILPPTNVGSNTY-NH2; disulfide 2-7) | 23.7 | 9050 |  |  | 9560 | 8 | 1210 | 51.7 | 43.1 | 50.2
